Like-named read-outs stand apart in the source and are kept apart here.
Tests used:
human CA-IX = target: T1, human CA-IX (Homo sapiens, UniProt Q16790); test: Surface Plasmon Resonance (SPR) binding kinetics to recombinant human CA-IX (Biacore 8K, single-cycle kinetics, 1:1 binding model)
T1 construct: purchased Acro CA9-H82E3
Method in brief: (§1)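 Proteins were captured on streptavidin chips at 1200-1800 RU (CA-IX 180 s, CA-XII 75 s injection). Compound was run at 9 concentrations (100-0.39 nM) in PBS-P+ pH 7.4 with 1% DMSO, 120 s association, 1200 s dissociation, 25° C. Rate constants came from reference- and DMSO-corrected curves.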

human CA-XII = target: T2, human CA-XII (Homo sapiens, UniProt O43570); test: Surface Plasmon Resonance (SPR) binding kinetics to recombinant human CA-XII (Biacore 8K, single-cycle kinetics, 1:1 binding model)
T2 construct: purchased Creative BioMart CA12-261H
T2 sequence (O43570 25-354): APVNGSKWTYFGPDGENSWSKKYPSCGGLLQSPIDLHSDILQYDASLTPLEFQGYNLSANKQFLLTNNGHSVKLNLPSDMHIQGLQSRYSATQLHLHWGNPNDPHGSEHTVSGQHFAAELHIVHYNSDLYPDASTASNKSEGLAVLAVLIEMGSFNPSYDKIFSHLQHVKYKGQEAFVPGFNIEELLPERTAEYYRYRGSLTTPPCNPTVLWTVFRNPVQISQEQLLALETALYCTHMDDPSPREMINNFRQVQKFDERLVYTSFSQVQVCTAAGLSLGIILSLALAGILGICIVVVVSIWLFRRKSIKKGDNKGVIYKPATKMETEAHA
Method in brief: as §1

[1] = Chelated Metal: Lu-175; SPR, 25° C., pH 7.4; read-out: CAIX KD
[2] = Chelated Metal: Lu-175, 25° C., pH 7.4, read-out: CAXII KD
[3] = read-out: CAIX KD; Chelated Metal: Lu-175; SPR, 25° C., pH 7.4
[4] = read-out: CAXII KD, Chelated Metal: Lu-175, 25° C., pH 7.4

For CCC(CC)Nc1c(F)c(S(N)(=O)=O)c(F)c(F)c1S(=O)(=O)CCOCc1cn(CCNC(=O)[C@H]2CN(C(=O)CN3CCN(CC(=O)O)CCN(CC(=O)O)CCN(CC(=O)O)CC3)CCN2C(=O)C[C@H](NC(=O)[C@@H]2COCCN2C(=O)CCCc2ccc(O)cc2)C(=O)O)nn1.[Lu+3] [Compound 107.41], the Kd (human CA-IX; [1]) was 1 to 2.5 nM and the Kd (human CA-XII; [2]) was over 10 nM.

NS(=O)(=O)c1nnc(NC(=O)C23CC(c4cn(CCNC(=O)[C@@H]5CN(C(=O)CN6CCN(CC(=O)O)CCN(CC(=O)O)CCN(CC(=O)O)CC6)CCN5C(=O)C[C@H](NC(=O)C[C@H](NC(=O)CCC5CCCCCC5)C(=O)O)C(=O)O)nn4)(C2)C3)s1.[Lu+3] [Compound 109.2] was tested, and the Kd (human CA-IX; [1]) was under 1 nM and the Kd (human CA-XII; [2]) was 1 to 2.5 nM.

Molecule NS(=O)(=O)c1nnc(NC(=O)C23CC(c4cn(CCNC(=O)[C@@H]5CN(C(=O)CN6CCN(CC(=O)O)CCN(CC(=O)O)CCN(CC(=O)O)CC6)CCN5C(=O)CNC(=O)C5(C(=O)O)CCN(C(=O)c6ccc(C7CC7)nn6)CC5)nn4)(C2)C3)s1.[Lu+3] [Compound 112] has a Kd (human CA-IX; [3]) of 2.5 to 10 nM and a Kd (human CA-XII; [4]) of over 10 nM.

CC(CCC(=O)N[C@@H](CC(=O)N[C@@H](CC(=O)N1CCN(C(=O)[C@H](CCC(=O)NCCOCCOCCOCCOCCOCCOCCOCCOCCC(=O)N[C@@H](CCCCNC(=O)CCCc2ccc(Cl)cc2)C(=O)O)NC(=O)CN2CCN(CC(=O)O)CCN(CC(=O)O)CCN(CC(=O)O)CC2)C[C@H]1C(=O)NCCn1cc(C23CC(C(=O)Nc4nnc(S(N)(=O)=O)s4)(C2)C3)nn1)C(=O)O)C(=O)O)(c1ccc(O)cc1)c1ccc(O)cc1.[Lu+3] (racemic) [Compound 125.1] gave a Kd (human CA-IX; [1]) of 2.5 to 10 nM and a Kd (human CA-XII; [2]) of over 10 nM.

Molecule CC(CCCC(=O)N1CCC(C(N)=O)(C(=O)NCC(=O)N2CCN(C(=O)CN3CCN(C(=O)CN4CCN(CC(=O)O)CCN(CC(=O)O)CCN(CC(=O)O)CC4)CC3)C[C@@H]2C(=O)NCCn2cc(C34CC(C(=O)Nc5nnc(S(N)(=O)=O)s5)(C3)C4)nn2)CC1)(c1ccc(O)cc1)c1ccc(O)cc1.[Lu+3] [Compound 129.3] has a Kd (human CA-IX; [1]) of under 1 nM and a Kd (human CA-XII; [2]) of over 10 nM.

In the case of NS(=O)(=O)c1nnc(NC(=O)C23CC(c4cn(CCNC(=O)[C@@H]5CN(C(=O)CN6CCN(CC(=O)O)CCN(CC(=O)O)CCN(CC(=O)O)CC6)CCN5C(=O)CNC(=O)C5(C(=O)O)CCN(C(=O)Cc6n[nH]c7ccc(F)cc67)CC5)nn4)(C2)C3)s1.[Lu+3] [Compound 112.15], the Kd (human CA-IX; [1]) is reported as 1 to 2.5 nM and the Kd (human CA-XII; [2]) is reported as over 10 nM.

In the case of NS(=O)(=O)c1nnc(NC(=O)C23CCC(c4cn(CCNC(=O)[C@@H]5CN(C(=O)CN6CCN(CC(=O)O)CCN(CC(=O)O)CCN(CC(=O)O)CC6)CCN5C(=O)CC[C@H](NC(=O)C[C@H](NC(=O)CCC56CCC(CC5)C6)C(=O)O)C(=O)O)nn4)(CC2)CC3)s1.[Lu+3] [Compound 109.57], the Kd (human CA-IX; [1]) is reported as under 1 nM and the Kd (human CA-XII; [2]) is reported as under 1 nM.

In the case of CC(CCCC(=O)N1CCC(C(N)=O)(C(=O)NCC(=O)N2CCN(C(=O)CC[C@H](C(=O)O)N3CCN(CC(=O)O)CCN(CC(=O)O)CCN(CC(=O)O)CC3)C[C@H]2C(=O)NCCn2cc(C34CC(C(=O)Nc5nnc(S(N)(=O)=O)s5)(C3)C4)nn2)CC1)(c1ccc(O)cc1)c1ccc(O)cc1.[Lu+3] [Compound 127.1], the Kd (human CA-IX; [1]) is reported as under 1 nM and the Kd (human CA-XII; [2]) is reported as over 10 nM.

CC(CCCC(=O)N1CCC(C(N)=O)(C(=O)NCC(=O)NC2(C(=O)NCCn3cc(C45CC(C(=O)Nc6nnc(S(N)(=O)=O)s6)(C4)C5)nn3)CCN(C(=O)CCOCCOCCOCCOCCOCCOCCOCCOCCNC(=O)CN3CCN(CC(=O)O)CCN(CC(=O)O)CCN(CC(=O)O)CC3)CC2)CC1)(c1ccc(O)cc1)c1ccc(O)cc1.[Lu+3] [Compound 129.5] showed a Kd (human CA-IX; [1]) of under 1 nM and a Kd (human CA-XII; [2]) of over 10 nM.

With CC(CCC(=O)N1CCOC[C@H]1C(=O)N[C@@H](CC(=O)N1CCN(C(=O)CN2CCN(CC(=O)O)CCN(CC(=O)O)CCN(CC(=O)O)CC2)C[C@@H]1C(=O)NCCn1cc(C23CC(C(=O)Nc4nnc(S(N)(=O)=O)s4)(C2)C3)nn1)C(=O)O)(c1ccc(O)cc1)c1ccc(O)cc1.[Lu+3] [Compound 107.8] the Kd (human CA-IX; [1]) was 1 to 2.5 nM and the Kd (human CA-XII; [2]) was over 10 nM.

In the case of CC(CCC(=O)N[C@@H](CC(=O)N[C@@H](CC(=O)N1CCN(C(=O)NCCOCCNC(=O)CN2CCN(CC(=O)O)CCN(CC(=O)O)CCN(CC(=O)O)CC2)C[C@@H]1CCCCn1cc(CCCC(=O)Nc2nnc(S(N)(=O)=O)s2)nn1)C(=O)O)C(=O)O)(c1ccc(O)cc1)c1ccc(O)cc1.[Lu+3] [Compound 123], the Kd (human CA-IX; [3]) is reported as 1 to 2.5 nM and the Kd (human CA-XII; [4]) is reported as 2.5 to 10 nM.

Work on NS(=O)(=O)c1nnc(NC(=O)C23CC(c4cn(CCNC(=O)[C@@H]5CN(C(=O)CN6CCN(CC(=O)O)CCN(CC(=O)O)CCN(CC(=O)O)CC6)CCN5C(=O)C[C@H](NC(=O)C[C@H](NC(=O)CCCc5ccc(Cl)cc5)C(=O)O)C(=O)O)nn4)(C2)C3)s1.[Lu+3] [Compound 109.37] yielded a Kd (human CA-IX; [1]) of under 1 nM and a Kd (human CA-XII; [2]) of 2.5 to 10 nM.

Molecule CC(CCCC(=O)N1CCC(C(N)=O)(C(=O)NCC(=O)N2CCN(C(=O)CN3CCN(CC(=O)O)CCN(CC(=O)O)CCN(CC(=O)O)CC3)C[C@H]2C(=O)NCCn2nnc(C34CC(C(=O)Nc5nnc(S(N)(=O)=O)s5)(C3)C4)c2C(=O)O)CC1)(c1ccc(O)cc1)c1ccc(O)cc1.[Lu+3] [Compound 107.58] has a Kd (human CA-IX; [1]) of under 1 nM and a Kd (human CA-XII; [2]) of over 10 nM.

CC(CCC(=O)N[C@@H](CC(=O)N[C@@H](CC(=O)NC1(CCCCn2cc(CCC(=O)Nc3nnc(S(N)(=O)=O)s3)nn2)CCN(C(=O)OCCOCCNC(=O)CN2CCN(CC(=O)O)CCN(CC(=O)O)CCN(CC(=O)O)CC2)CC1)C(=O)O)C(=O)O)(c1ccc(O)cc1)c1ccc(O)cc1.[Lu+3] [Compound 116.4] gave a Kd (human CA-IX; [1]) of 2.5 to 10 nM and a Kd (human CA-XII; [2]) of over 10 nM.

NS(=O)(=O)c1nnc(NC(=O)C23CC(c4cn(CCNC(=O)[C@@H]5CN(C(=O)CN6CCN(CC(=O)O)CCN(CC(=O)O)CCN(CC(=O)O)CC6)CCN5C(=O)C[C@H](NC(=O)C[C@H](NC(=O)c5ccc(S(F)(F)(F)(F)F)cc5)C(=O)O)C(=O)O)nn4)(C2)C3)s1.[Lu+3] [Compound 109.16] gave a Kd (human CA-IX; [1]) of under 1 nM and a Kd (human CA-XII; [2]) of 2.5 to 10 nM.

With NS(=O)(=O)c1nnc(NC(=O)C23CC(c4cn(CCNC(=O)[C@@H]5CN(C(=O)CN6CCN(CC(=O)O)CCN(CC(=O)O)CC6)CCN5C(=O)C[C@H](NC(=O)C[C@H](NC(=O)CC5CC6(CCC6)C5)C(=O)O)C(=O)O)nn4)(C2)C3)s1.[Cu+2] [Compound 126.5] the Kd (human CA-IX; Chelated Metal: Cu (cold); SPR, 25° C., pH 7.4; read-out: CAIX KD) was under 1 nM and the Kd (human CA-XII; Chelated Metal: Cu (cold), 25° C., pH 7.4, read-out: CAXII KD) was 1 to 2.5 nM.

Work on NS(=O)(=O)c1nnc(NC(=O)C23CC(c4cn(CCNC(=O)[C@@H]5CN(C(=O)CN6CCN(CC(=O)O)CCN(CC(=O)O)CCN(CC(=O)O)CC6)CCN5C(=O)CNC(=O)C5(C(=O)O)CCN(C(=O)CCCc6n[nH]c7ccccc67)CC5)nn4)(C2)C3)s1.[Lu+3] [Compound 112.5] yielded a Kd (human CA-IX; [1]) of 2.5 to 10 nM and a Kd (human CA-XII; [2]) of over 10 nM.

For CC(CCCC(=O)N1CCC(C(N)=O)(C(=O)NCC(=O)NC2(C(=O)NCCn3cc(C45CC(c6cn7nc(S(N)(=O)=O)sc7n6)(C4)C5)nn3)CCN(C(=O)CC[C@H](C(=O)O)N3CCN(CC(=O)O)CCN(CC(=O)O)CCN(CC(=O)O)CC3)CC2)CC1)(c1ccc(O)cc1)c1ccc(O)cc1.[Lu+3] [Compound 127.5], the Kd (human CA-IX; [1]) was under 1 nM and the Kd (human CA-XII; [2]) was 2.5 to 10 nM.

CC(CCCC(=O)N1CCC(C(N)=O)(C(=O)NCC(=O)NC2(C(=O)N[C@@H](Cn3cc(C45CC(C(=O)Nc6nnc(S(N)(=O)=O)s6)(C4)C5)nn3)C(=O)O)CCN(C(=O)CN3CCN(CC(=O)O)CCN(CC(=O)O)CCN(CC(=O)O)CC3)CC2)CC1)(c1ccc(O)cc1)c1ccc(O)cc1.[Lu+3] [Compound 134] gave a Kd (human CA-IX; [3]) of under 1 nM and a Kd (human CA-XII; [4]) of over 10 nM.

In the case of CC(CCCC(=O)N1CCC(C(N)=O)(C(=O)NCC(=O)NC2(C(=O)NCCn3cc(COc4ccc5nc(S(N)(=O)=O)sc5c4)nn3)CCN(C(=O)CN3CCN(CC(=O)O)CCN(CC(=O)O)CCN(CC(=O)O)CC3)CC2)CC1)(c1ccc(O)cc1)c1ccc(O)cc1.[Lu+3] [Compound 117.8], the Kd (human CA-IX; [1]) is reported as under 1 nM and the Kd (human CA-XII; [2]) is reported as over 10 nM.

Source: patent US20260325685A1, “Radiopharmaceutical Compositions Targeting Carbonic Anhydrase IX and Uses Thereof” (RayzeBio, Inc., priority 2023, published 2026)
